Here are results for three compounds from patent US20150133431A1, “GGA DERIVATIVES” (COYOTE PHARMACEUTICALS, INC., priority 2013, published 2015).

Molecules are shown by their SMILES.

For one experiment, the system named is cells. In words: cytoprotective effects on cells, GGA isomers. The experiment is classed as cell-based. The protocol: The isolated cis- and trans-compounds described herein are also useful in assays which access a compound having putative cytoprotective effects. In particular, in such assays, the cis-isomer of GGA will behave as baseline or negative control and the trans-isomer as a positive control. The putative compound is tested in the assay described variously herein and its activity correlated against the cis- and trans-isomers. […] Accordingly, the cis-isomer finds utility as a negative control in the assay.

The conditions of experiment [1]: in certain situations; Katsuno et al., PNAS 2003; cited from earlier work.

As to `CC(=O)CC/C=C(\C)CC/C=C(\C)CC/C=C(\C)CCC=C(C)C` [trans-isomer of GGA, 5E,9E,13E-Geranylgeranyl acetone], the “cytoprotective efficacy compared with 1:2 to 1:3 cis:trans mixture of GGA and cis-isomer alone” value with cells (comparison of isomers) was “more efficacious at lower concentrations”. As to `CC(=O)CC/C=C(/C)CC/C=C(\C)CC/C=C(\C)CCC=C(C)C` [cis-isomer, 5Z,9E,13E-Geranylgeranyl acetone], in the experiment on cells (increasing amounts of the cis-isomer), the “effect of increasing amounts of cis-isomer on activity of trans-isomer” value is “antagonize the activity of the trans-isomer”. For the compound `CC(=O)CC/C=C(\C)CC/C=C(\C)CC/C=C(\C)CCC=C(C)C` [GGA, Geranylgeranyl acetone], in experiment [1], the “concentration of GGA required to exert a cytoprotective effect” value is recorded as “more than 600 mg per kg per day”.
